{"source": "patent US20090117123A1", "about": "“IMMU[…] HPV E6 AND E7 PROTEINS” (National Health Research Institutes, priority 2007, published 2009)", "key": {"[1]": {"tested_on": "HLA A24 heavy chain and β2-microglobulin", "experiment": "MHC-peptide complex formation assay (ELISA), HLA A24", "type": "binding", "method": "The HLA A24 heavy chain and β2-microglobulin were expressed and purified following the method described above. These proteins were incubated with synthetic peptides containing potential CTL-epitopes identified by the computational programs mentioned in Example 1. The formation of HLA A24-β2-peptide complexes was determined by the ELISA assay also described in Example 1 above."}, "[2]": {"tested_on": "splenocytes from C57BL/6-HLA-A11 transgenic mouse", "experiment": "IFN-γ ELISPOT of splenocytes from peptide-immunized HLA-A11 transgenic mouse", "type": "in vivo", "details": "HLA-A11 transgenic mouse immunized s.c. with peptide, ISA-51 and T helper epitope; FIG. 5A", "method": "C57BL/6-HLA-A11 transgenic mouse, derived from the Animal Technology Institute in Taiwan, was used in this study. 50 μg synthetic peptides having the amino acid sequence of […] (A11VVY; SEQ ID NO:1) were formulated with incomplete adjuvant ISA-51 in the presence of a peptide […] (SEQ ID NO:17), which contains a T helper cell epitope derived from hepatitis B virus. The composition thus formed was injected subcutaneously into the HLA-A11 transgenic mouse two times every two weeks. Seven days after the final injection, splenotyes from the immunized mouse were isolated and cultured in a medium containing A11VVY. The level of IFN-γ secreted to the medium was determined by Enzyme-linked immunospot (ELISPOT) as described below.\nA 96-well plate, having nitrocellulose membrane inserted in each well, was coated with […] anti-IFN-γ antibody (clone MAB1-D1K, 10 μg/ml in 1×PBS, from Mabtech, Macka, Sweden) and was incubated at 4° C. for 24 hours. The plate was washed four times with PBS, and then incubated with […] per well RPMI medium containing 10% fetal bovine serum (FBS) for 1-3 hours. […] After 4-6 minutes, the plate was washed with running tap water to stop the reaction of developing the spots, which were counted by a computational image analysis."}, "[3]": {"biological_target": "HLA A11 heavy chain (His-Tag fusion) with β2-microglobulin (human)", "experiment": "MHC-peptide complex formation assay, ELISA; relative to positive and negative control O.D."}, "[4]": {"tested_on": "CD8^+ T cells of C57BL/6-HLA-A11 transgenic mice", "experiment": "HLA-A11-peptide tetramer staining of CD8+ T cells from peptide-immunized mice", "type": "in vivo, mouse", "details": "HLA-A11 transgenic mice immunized s.c. twice; splenocytes cultured 5 days with peptide and rIL-2; FIG. 6A", "method": "C57BL/6-HLA-A11 transgenic mice were immunized s.c. twice with peptide VVY (SEQ ID NO:1) or control peptide SSC (SEQ ID NO:12) together with a T helper cell epitope […] (SEQ ID NO:17), and incomplete adjuvant ISA-51. Seven days after the second immunization, splenocytes were harvested from the immunized mice, cultivated in vitro in the presence of peptide VVY or SSC (10 μg/ml) and rIL-2 (10 U/ml) for five days. The cells were then double stained with HLA-A11-peptide tetramer VVY-tet-PE or SCC-tet-PE and a FITC-conjugated anti-CD8 antibody to detect CD8^+ T cells that bind to either VVY or SSC.\nThe tetramers were prepared as follows. Purified HLA-A11 heavy chains and β2-microglobulins were refolded in the presence of VVY or SSC in a refolding buffer containing 100 mM Tris-HCl (pH 8), 400 mM L-arginine, 2 mM EDTA, 5 mM reduced glutathione, 0.5 mM oxidized glutathione for 48 hrs at 4° C. […]\nThe tetramers thus prepared were incubated with the peptide-challenged T cells in a FACS staining buffer for 20 min at room temperature and a FITC conjugated anti-CD8 antibody was then added to the incubation system and kept on ice for 20 min. The stained cells were analyzed by flow cytometry (FACScalibur BD Bioscience, Calif., USA) in the presence of 1 μg/ml of propidium iodide (Sigma, Mo., USA) to exclude dead cells."}, "[5]": {"tested_on": "^51Cr-labeled T2/HLA-A11 cells", "experiment": "Chromium-release assay, peptide-specific CTL effects after DNA plasmid immunization", "type": "cell-based, mouse", "details": "mice immunized with plasmid pE3/19K/HPV18E6E7; FIG. 7B", "method": "(§1) Next, the CTL effect induced by peptide VVY was examined as follows. HLA-A11 transgenic mice were immunized twice with peptide VVY, SIP, or ATL, all of which were derived from HPV 18, following the procedures described above in this Example. Splenocytes (2×10^6/ml) isolated from the immunized mice were cultured with 10 μg/ml of either VVY or A11-SCC and 10 U/ml rIL-2 for at 37+ C. for 5 days. A standard chromium release assay was performed to determine cytolytic activity. In brief, T2/HLA-A11 cells were labeled with 100 μCi of ^51Cr (PerkinElmer, Waltham, Mass., USA) for 1.5 hrs at 37° C. and washed afterwards three times with cold RPMI. The cultured splenocytes, used as effector cells, were mixed with 5×10^3 the ^51Cr-labeled T2/HLA-A11 cells at various ratios in triplicate wells in a U-bottom 96-well plate (Nunc, Rochester, N.Y., USA). After 4-5 hrs incubation, supernatants from each well were collected and the radioactivity contained therein was measured using a γ-counter (PARKARD, Ramsey, Mich., USA). The specific lysis rate was determined following the formula: Specific lysis rate (%)=(Samplecpm−Spontaneous releasecpm)/(Maximum releasecpm−Spontaneous releasecpm)%.\n(§2) Seven to ten days after the second immunization, the mice were sacrificed and their splenocytes collected.\nNext, peptide-specific CTL effects were examined by the chromium-release assay described in Example 4 above."}, "[6]": {"tested_on": "splenocytes from HLA-A11/K^b transgenic mice", "experiment": "IFN-γ ELISPOT of peptide-stimulated splenocytes from DNA plasmid-immunized mice", "type": "cell-based, mouse", "details": "splenocytes of mice immunized i.m. with plasmid pE3/19K/HPV18E6E7, stimulated with the peptide; FIG. 7A", "method": "(§3) A 96-well plate, having nitrocellulose membrane inserted in each well, was coated with […] anti-IFN-γ antibody (clone MAB1-D1K, 10 μg/ml in 1×PBS, from Mabtech, Macka, Sweden) and was incubated at 4° C. for 24 hours. The plate was washed four times with PBS, and then incubated with […] per well RPMI medium containing 10% fetal bovine serum (FBS) for 1-3 hours. Next, splenocytes were suspended in RPMI containing 10% FBS and 1×10^5 or 5×10^5 splennocytes (200 μl) were added to each well with or without A11VVY. The ELISPOT assay was performed in triplicate wells for each experimental condition. The plate was incubated in an incubator supplied with 5% CO2 at 37° C. for 2 hours. After being washed for 2-3 times, the plate was incubated with avidin-peroxidase complex reagent for one hour at room temperature and then washed three times with 0.05% (w/v) Tween 20 in PBS and three times with PBS. 100 μl aminoethylcarbazole staining solution were then added to each well to develop stained spots. After 4-6 minutes, the plate was washed with running tap water to stop the reaction of developing the spots, which were counted by a computational image analysis.\nPlasmid pE3/19K/HPV18E6E7 was constructed following the conventional recombinant technology. This plasmid contains the E3/19K leader sequence and a nucleotide sequence encoding a fusion protein composed of the H-2K^b-restricted CTL epitope SII (derived from ovalbumin) and HPV18E6E7 polypeptide, which includes epitopes VVY, SIP, and ATL.\nas §2\nThe splenocytes werestimulated with peptide VVY, SII, SIP, ATL, or a control peptide and the levels of IFN-γ secreted thereby were determined with the Enzyme-linked immunospot (ELISPOT) assay described in Example 1 above."}, "[7]": {"tested_on": "^51Cr-labeled T2/HLA-A11 cells", "experiment": "Chromium release assay with splenocytes from peptide-immunized mice", "type": "in vivo, mouse", "details": "HLA-A11 transgenic mice immunized twice with the peptide; FIG. 6B", "method": "as §1"}, "[8]": {"tested_on": "T cells of HLA-A24 transgenic mice", "experiment": "IFN-γ secretion of splenocytes from peptide-immunized HLA-A24 transgenic mice", "type": "in vivo, mouse", "details": "HLA-A24 transgenic mice immunized with peptide; FIG. 5B", "method": "FIG. 5B is a diagram showing IFN-γ secretion of splenocytes obtained from HLA-A24 transgenic mice immunized with peptide […] (A24 CYE, SEQ ID NO:5) or a control peptide.\nas §3"}}}
{"substance": "VDLLCHEQL (listed as Human papillomavirus) [23-31 of HPV 18 E7]", "values": [{"measurement": "HLA A24 restriction (HLA A24-β2-peptide complex formation)", "setting": "[1]", "result": "HLA A24 restricted epitopes"}]}
{"substance": "WLSLLVPFV [A2-restricted peptide, used as control peptide for immunization]", "values": [{"measurement": "IFN-γ secreting splenocytes", "setting": "[2]", "result": "little"}]}
{"substance": "… (54-62 of HPV 18 E6) (peptide)", "values": [{"measurement": "relative binding %", "setting": "[3]", "result": 30, "unit": "%"}]}
{"substance": "SSCSSCPLSK (listed as Human herpesvirus) [A11-SCC, positive control A11-restricted peptide derived from EBV LMP2 protein]", "values": [{"measurement": "induction of VVY-specific CD8^+ T cells (tetramer staining)", "setting": "[4]", "result": "did not show this effect"}]}
{"substance": "SIINFEKL (listed as Mus musculus)", "values": [{"measurement": "peptide-specific CTL effects", "setting": "[5]", "result": "not"}, {"measurement": "induction of IFN-γ secretion", "setting": "[6]", "result": "induced IFN-γ secretion"}]}
{"substance": "VVYRDSIPH (listed as Human papillomavirus) [54-62 of HPV 18 E6]", "values": [{"measurement": "CTL effects (specific lysis)", "setting": "[7]", "result": "induced CTL effects"}, {"measurement": "peptide-specific CTL effects", "setting": "[5]", "result": "induced CTL effects"}, {"measurement": "IFN-γ secreting splenocytes", "setting": "[2]", "result": "large amount"}, {"measurement": "induction of VVY-specific CD8^+ T cells (tetramer staining)", "setting": "[4]", "result": "induced VVY-specific CD8^+ T cells"}, {"measurement": "induction of IFN-γ secretion", "setting": "[6]", "result": "induced IFN-γ secretion"}]}
{"substance": "CYEQLGDSS (listed as Human papillomavirus) [24-32 of HPV 52 E7]", "values": [{"measurement": "IFN-γ secretion by peptide-specific T cells", "setting": "[8]", "result": "incuded A24CYE-specific T cells to secrete IFN-γ"}, {"measurement": "HLA A24 restriction (HLA A24-β2-peptide complex formation)", "setting": "[1]", "result": "HLA A24 restricted epitopes"}]}
{"substance": "ATLQDIVLH (listed as Human papillomavirus) [peptide derived from HPV 18]", "values": [{"measurement": "CTL effects (specific lysis)", "setting": "[7]", "result": "not"}, {"measurement": "induction of IFN-γ secretion", "setting": "[6]", "result": "not"}]}
{"substance": "SIPHAACHK (listed as Human papillomavirus) [peptide derived from HPV 18]", "values": [{"measurement": "CTL effects (specific lysis)", "setting": "[7]", "result": "not"}, {"measurement": "induction of IFN-γ secretion", "setting": "[6]", "result": "not"}]}
{"substance": "… (64-72 of HPV 52 E6) (peptide)", "values": [{"measurement": "relative binding %", "setting": "[3]", "result": 30, "unit": "%"}]}
{"substance": "… (94-102 of HPV 58 E6) (peptide)", "values": [{"measurement": "relative binding %", "setting": "[3]", "result": 30, "unit": "%"}]}
{"substance": "RAHYNIVTF (listed as Human papillomavirus) [control peptide]", "values": [{"measurement": "peptide-specific CTL effects", "setting": "[5]", "result": "not"}, {"measurement": "induction of IFN-γ secretion", "setting": "[6]", "result": "not"}]}
